Data taken from patent publication US9700516B2, “Compositions and methods for reducing overdose” (priority 2014, dated 2017).

Experiment: Effect of alkalinizing agents on the pH of a solution of 0.1 N HCl with a starting pH of 2.0
Format: physicochemical
Protocol: Various alkalinizing agents were added to a solution of 0.1 N HCl with a starting pH of 2.0 and the pH of the solution was tested at different time points.

SMILES: [O]=[Mg] [MgO, magnesium oxide]
- pH (40 mg per 320 mL, 0 min): 2.01
- pH (40 mg per 320 mL, 1 min): 2.01
- pH (40 mg per 320 mL, 2 min): 2.03
- pH (40 mg per 320 mL, 3 min): 2.08
- pH (40 mg per 320 mL, 4 min): 2.10
- pH (40 mg per 320 mL, 5 min): 2.13
- pH (40 mg per 320 mL, 6 min): 2.16
- pH (40 mg per 320 mL, 7 min): 2.19
- pH (40 mg per 320 mL, 8 min): 2.22
- pH (40 mg per 320 mL, 9 min): 2.23
- pH (40 mg per 320 mL, 10 min): 2.24
- pH (40 mg per 320 mL, 20 min): 2.30
- pH (40 mg per 320 mL, 30 min): 2.33
- pH (40 mg per 320 mL, 40 min): 2.39
- pH (40 mg per 320 mL, 50 min): 2.34
- pH (40 mg per 320 mL, 60 min): 2.34
- pH (80 mg per 320 mL, 0 min): 1.99
- pH (80 mg per 320 mL, 1 min): 2.00
- pH (80 mg per 320 mL, 2 min): 2.02
- pH (80 mg per 320 mL, 3 min): 2.05
- pH (80 mg per 320 mL, 4 min): 2.06
- pH (80 mg per 320 mL, 5 min): 2.08
- pH (80 mg per 320 mL, 6 min): 2.10
- pH (80 mg per 320 mL, 7 min): 2.12
- pH (80 mg per 320 mL, 8 min): 2.13
- pH (80 mg per 320 mL, 9 min): 2.15
- pH (80 mg per 320 mL, 10 min): 2.17
- pH (80 mg per 320 mL, 20 min): 2.30
- pH (80 mg per 320 mL, 30 min): 2.40
- pH (80 mg per 320 mL, 40 min): 2.48
- pH (80 mg per 320 mL, 50 min): 2.55
- pH (80 mg per 320 mL, 60 min): 2.63
- pH (80 mg powder/200 ml, 4 min): 6.21
- pH (80 mg powder/200 ml, 5 min): 6.67
- pH (80 mg powder/200 ml, 6 min): 7.22
- pH (80 mg powder/200 ml, 7 min): 7.98
- pH (80 mg powder/200 ml, 8 min): 8.42
- pH (80 mg powder/200 ml, 9 min): 8.44
- pH (80 mg powder/200 ml, 10 min): 10.13
- pH (80 mg powder/200 ml, 20 min): 10.13
- pH (80 mg powder/200 ml, 30 min): 8.66
- pH (80 mg powder/200 ml, 40 min): 10.13
- pH (80 mg, Granular/200 ml, 4 min): 2.75
- pH (80 mg, Granular/200 ml, 5 min): 3.37
- pH (80 mg, Granular/200 ml, 6 min): 5.50
- pH (80 mg, Granular/200 ml, 7 min): 6.04
- pH (80 mg, Granular/200 ml, 8 min): 6.38
- pH (80 mg, Granular/200 ml, 9 min): 6.74
- pH (80 mg, Granular/200 ml, 10 min): 7.05
- pH (80 mg, Granular/200 ml, 20 min): 7.50
- pH (80 mg, Granular/200 ml, 30 min): 9.14
- pH (100 mg powder/200 ml, 4 min): 2.37
- pH (100 mg powder/200 ml, 5 min): 2.37
- pH (100 mg powder/200 ml, 6 min): 3.52
- pH (100 mg powder/200 ml, 7 min): 3.52
- pH (100 mg powder/200 ml, 8 min): 3.52
- pH (100 mg powder/200 ml, 9 min): 3.52
- pH (100 mg powder/200 ml, 10 min): 3.52
- pH (100 mg powder/200 ml, 20 min): 5.00
- pH (100 mg powder/200 ml, 30 min): 6.50
- pH (100 mg powder/200 ml, 40 min): 8.09
- pH (120 mg powder/200 ml, 4 min): 6.97
- pH (120 mg powder/200 ml, 5 min): 8.21
- pH (120 mg powder/200 ml, 6 min): 8.21
- pH (120 mg powder/200 ml, 7 min): 8.21
- pH (120 mg powder/200 ml, 8 min): 8.21
- pH (120 mg powder/200 ml, 9 min): 8.21
- pH (120 mg powder/200 ml, 10 min): 8.21
- pH (120 mg powder/200 ml, 20 min): 8.21
- pH (120 mg powder/200 ml, 30 min): 8.21
- pH (160 mg per 320 mL, 0 min): 1.99
- pH (160 mg per 320 mL, 1 min): 2.05
- pH (160 mg per 320 mL, 2 min): 2.14
- pH (160 mg per 320 mL, 3 min): 2.24
- pH (160 mg per 320 mL, 4 min): 2.35
- pH (160 mg per 320 mL, 5 min): 2.47
- pH (160 mg per 320 mL, 6 min): 2.60
- pH (160 mg per 320 mL, 7 min): 2.71
- pH (160 mg per 320 mL, 8 min): 2.83
- pH (160 mg per 320 mL, 9 min): 2.95
- pH (160 mg per 320 mL, 10 min): 3.07
- pH (160 mg per 320 mL, 20 min): 8.16
- pH (160 mg per 320 mL, 30 min): 9.30
- pH (160 mg per 320 mL, 40 min): 9.54
- pH (160 mg per 500 mL, 0 min): 1.98
- pH (160 mg per 500 mL, 1 min): 2.00
- pH (160 mg per 500 mL, 2 min): 2.02
- pH (160 mg per 500 mL, 3 min): 2.05
- pH (160 mg per 500 mL, 4 min): 2.07
- pH (160 mg per 500 mL, 5 min): 2.12
- pH (160 mg per 500 mL, 6 min): 2.15
- pH (160 mg per 500 mL, 7 min): 2.18
- pH (160 mg per 500 mL, 8 min): 2.22
- pH (160 mg per 500 mL, 9 min): 2.24
- pH (160 mg per 500 mL, 10 min): 2.27
- pH (160 mg per 500 mL, 20 min): 2.54
- pH (160 mg per 500 mL, 30 min): 2.62
- pH (160 mg per 500 mL, 40 min): 2.74
- pH (160 mg per 500 mL, 50 min): 2.86
- pH (160 mg per 500 mL, 60 min): 2.96
- effect on pH of the solution (80-120 mg/200 ml powder and 80 mg granular/200 ml): rapidly raise the pH of the solution to neutral or higher

SMILES: CCCCCCCCCCCCOS(=O)(=O)[O-].[Na+] [sodium lauryl sulfate]
- pH (10 mg (10.22 mg actual) in 200 ml, 0 min): 2.67
- pH (10 mg (10.22 mg actual) in 200 ml, 1 min): 2.68
- pH (10 mg (10.22 mg actual) in 200 ml, 2 min): 2.68
- pH (10 mg (10.22 mg actual) in 200 ml, 3 min): 2.68
- pH (10 mg (10.22 mg actual) in 200 ml, 4 min): 2.67
- pH (10 mg (10.22 mg actual) in 200 ml, 5 min): 2.67
- pH (10 mg (10.22 mg actual) in 200 ml, 6 min): 2.67
- pH (10 mg (10.22 mg actual) in 200 ml, 7 min): 2.67
- pH (10 mg (10.22 mg actual) in 200 ml, 8 min): 2.67
- pH (10 mg (10.22 mg actual) in 200 ml, 9 min): 2.67
- pH (10 mg (10.22 mg actual) in 200 ml, 10 min): 2.67
- pH (10 mg (10.22 mg actual) in 200 ml, 20 min): 2.67
- pH (10 mg (10.22 mg actual) in 200 ml, 30 min): 2.67
- effect on pH of the solution (10 mg in 200 ml, 30 minute timecourse): insufficient to substantially raise the pH of the solution

SMILES: O=C([O-])O.[Na+] [sodium bicarbonate]
- pH (20 mg per 320 mL, 0 min): 2.02
- pH (20 mg per 320 mL, 1 min): 2.04
- pH (20 mg per 320 mL, 2 min): 2.05
- pH (20 mg per 320 mL, 3 min): 2.05
- pH (20 mg per 320 mL, 4 min): 2.05
- pH (20 mg per 320 mL, 5 min): 2.05
- pH (20 mg per 320 mL, 6 min): 2.05
- pH (20 mg per 320 mL, 7 min): 2.05
- pH (20 mg per 320 mL, 8 min): 2.05
- pH (20 mg per 320 mL, 9 min): 2.05
- pH (20 mg per 320 mL, 10 min): 2.05
- pH (20 mg per 320 mL, 20 min): 2.05
- pH (20 mg per 320 mL, 30 min): 2.05
- pH (20 mg per 320 mL, 40 min): 2.05
- pH (20 mg per 320 mL, 50 min): 2.05
- pH (20 mg per 320 mL, 60 min): 2.05
- effect on pH of the solution (20 mg/320 ml and 40 mg/320 ml, 60 minute timecourse): neither amount tested was sufficient to raise the pH to neutral or higher
- pH (40 mg per 320 mL, 0 min): 2.05
- pH (40 mg per 320 mL, 1 min): 2.08
- pH (40 mg per 320 mL, 2 min): 2.08
- pH (40 mg per 320 mL, 3 min): 2.08
- pH (40 mg per 320 mL, 4 min): 2.08
- pH (40 mg per 320 mL, 5 min): 2.09
- pH (40 mg per 320 mL, 6 min): 2.09
- pH (40 mg per 320 mL, 7 min): 2.09
- pH (40 mg per 320 mL, 8 min): 2.09
- pH (40 mg per 320 mL, 9 min): 2.09
- pH (40 mg per 320 mL, 10 min): 2.09
- pH (40 mg per 320 mL, 20 min): 2.09
- pH (40 mg per 320 mL, 30 min): 2.09
- pH (40 mg per 320 mL, 40 min): 2.09
- pH (40 mg per 320 mL, 50 min): 2.09
- pH (40 mg per 320 mL, 60 min): 2.09
- pH (50 mg/200 ml, 0 min): 1.71
- pH (50 mg/200 ml, 10 min): 1.72
- pH (50 mg/200 ml, 20 min): 1.72
- pH (50 mg/200 ml, 30 min): 1.72
- pH (50 mg/200 ml, 40 min): 1.72
- pH (100 mg/200 ml, 0 min): 1.71
- pH (100 mg/200 ml, 10 min): 1.76
- pH (100 mg/200 ml, 20 min): 1.75
- pH (100 mg/200 ml, 30 min): 1.75
- pH (100 mg/200 ml, 40 min): 1.75
- effect on pH of the solution (50 and 100 mg/200 ml, 40 minute timecourse): neither tested amount was sufficient to raise the pH
- pH of the solution (all tested amounts, over the times tested): above 2.0

SMILES: O=C([O-])CC(O)(CC(=O)[O-])C(=O)[O-].[Na+].[Na+].[Na+] [Sodium Citrate, sodium citrate]
- pH (930 mg in 200 ml, 10 min): 5.53
- pH (930 mg in 200 ml, 20 min): 5.53
- pH (930 mg in 200 ml, 30 min): 5.53
- pH (930 mg in 200 ml, 40 min): 5.53
- pH (930 mg in 200 ml, 50 min): 5.53
- pH (930 mg in 200 ml, 60 min): 5.53

SMILES: CNC[C@H](O)[C@@H](O)[C@H](O)[C@H](O)CO [Meglumine, meglumine]
- pH (120 mg in 200 ml, 10 min): 2.16
- pH (120 mg in 200 ml, 20 min): 2.16
- pH (120 mg in 200 ml, 30 min): 2.16
- pH (120 mg in 200 ml, 40 min): 2.16
- pH (120 mg in 200 ml, 50 min): 2.16
- pH (120 mg in 200 ml, 60 min): 2.16
